Data on one molecule can be found in patent publication US20250049904A1, “IMMUNOSTIMULATORY COMPOSITIONS” (VICTORIA LINK LIMITED, priority 2021, published 2025).

The test deals with liver TRM cells. Nature of the test: LPX-mOVA-CI058 vaccination of NKT cell-deficient mice; liver TRM cells. Format: in vivo, TRAJ18-deficient mice. To be noted: LPX vaccine with CI058, 28 days after vaccination. As for the experimental part: Groups (n=3) of C57BL/6 mice or TRAJ18-deficient mice were vaccinated with LPX-mOVA-CI058, or injected with PBS vehicle. The TRAJ18-deficient strain cannot complete the TCR rearrangement required to form the TCR-alpha chain used by type I NKT cells, and therefore are deficient in these cells, while the remaining T cell repertoire is largely intact. No prior transfer of OT-I cells was conducted, so results reflect endogenous T cell responses to vaccination. Mean number of TRM cells in liver 28 days after vaccination for each treatment group (±SEM) are shown; dots represent individual mice. **P<0.01,
C57BL/6 (B6), OT-I^1, and TRAJ18^−/− mice were bred and maintained at the Department of Microbiology and Immunology, The University of Melbourne, or the BRU, Malaghan Institute of Medical Research, New Zealand. […]
Lymphocytes were stained with monoclonal antibodies for: CD8a (53-6.7), Ly5.1 (A20), CD44 (IM7), CXCR6 (SA051D1), CX3CR1 (SA011F11), from BioLegend (Australian Biosearch, Karrinyup, WA. Australia), and CD62L (MEL-14) and CD69 (H1.2F3), from eBioscience (Jomar Life Research, Scoresby, VIC, Australia). […] Single-color positive control samples were used to adjust compensation and cells were analyzed by flow cytometry on a LSR Fortessa (BD Biosciences), or LSRII SORP using Flowjo software (Tree Star Inc.).

For the molecule `CCCCCCCCCCCCCCCCCCCCCCCCCC(=O)N[C@@H](CO[C@H]1O[C@H](CSCC(=O)Nc2ccc(C3=C4C(C)=CC(C)=[N+]4[B-](F)(F)n4c(C)cc(C)c43)cc2)[C@H](O)[C@H](O)[C@H]1O)[C@H](O)[C@H](O)CCCCCCCCCCCCCC` [CI058, (2S,3S,4R)-1-(6-Deoxy-6-((2-((4-(5,5-difluoro-1,3,7,9-tetramethyl-5H-4λ4,5λ4-dipyrrolo[1,2-c:2′,1′-f][1,3,2]diazaborinin-10-yl)phenyl)amino)-2-oxoethyl)thio)-α-D-galactopyranosyloxy)-2-hexacosanoylamino-3,4-octadecandiol], the “liver TRM cell accumulation in NKT cell-deficient mice” value was “no liver TRM cell accumulation is induced”.
